Laboratory results from patent publication US6686458B2, “Synthetic molecules that specifically react with target sequences” (The Regents of the University of California, priority 1997, dated 2004).

Legend:
[1] = system: target sequence (SEQ ID NO. 1); assay: Fluorescence (quantum yield, excitation and emission maxima) of target sequence/biarsenical molecule complex; assay type: physicochemical
Procedure: Formation of target sequence/biarsenical molecule (III) complex. Biarsenical molecule (III) (3 μl of 1 mM solution in DMSO) was added to 100 μl of 25 μM target sequence (SEQ. ID NO. 1) in 25 mM phosphate, pH 7.4, 100 mM KCl, 1 mM mercaptoethanesulfonate. After 1.5 hours, the reaction mixture (at room temperature) was injected onto a Dionex IonPac NS1 reverse phase HPLC column, gradient 20% to 46% acetonitrile (0.1% TFA) from 3 to 17 minutes. The complex eluted at 14.7 minutes (Free target sequence elutes at 12.6 minutes.) Mass spectrum analysis indicated a molecular weight of 2414.99 Da and the calculated molecular weight for the 1:1 complex was 2415.33 Da.
Quantum yield of target sequence/biarsenical molecule(III) complex. Solutions of fluorescein in 0.1 N NaOH and of target sequence/biarsenical molecule(III) complex in 25 mM phosphate, pH 7.4 and 100 mM KCl were adjusted to equal absorbances (0.0388) at 499 nm. The ratio of the integrated emission (excitation at 499 nm) of target sequence/biarsenical molecule(III) complex relative to fluorescein was multiplied by 0.9, the quantum yield of fluorescein, giving a quantum yield 0.44 for the target sequence/biarsenical molecule (III) complex.
(§1) This complex has a fluorescence quantum yield of 0.44 with excitation maximum at 508 nm and emission maximum at 528 nm (FIG. 4). The complex was of sufficient stability to remain intact in the presence of up to 100 equivalents of 2,3 dimercapto-1-propanol (BAL). Incubations with BAL were done at room temperature for 15 minutes.
Formation of a complex with target sequence and the dichloro-derivative of the biarsenical molecule (III). Dichloro-derivative of the biarsenical molecule (III) (5 μl of 675 μm solution in DMSO was added to 100 μl of 25 μM target sequence (SEQ ID NO. 1) in 25 mM phosphate, pH 7.4, 100 mM KCl 1 mM mercaptoethanesulfonate. After 1.5 hours, the reaction mixture was injected onto a Dionex IonPac SN1 reverse phase HPLC column, gradient 20% to 46% acetonitrile (0.1% TFA) from 3 to 17 minutes. The complex eluted in two overlapping peaks of the same molecular weight at 16.1 and 16.4 minutes. (Free peptide elutes at 12.6 minutes.) Mass spectrum analysis indicated a molecular weight of 2484.80 Da compared to the calculated molecular weight of the 1:1 complex was 2484.22 Da.

calmodulin+cys4 = molecular target: T1, calmodulin+cys4 (Xenopus laevis, UniProt P0DP33, A11C/A2H/E12C/E7C/E8C); assay: Labeling of calmodulin+cys4 in transfected HeLa cells (fluorescence microscopy); assay type: cell-based
T1 construct: expressed in transfected cells; host or cells: HeLa cells, pcDNA3 vector
Source text: Four cysteines were introduced into the N-terminal α-helix of xenopus calmodulin as shown below:
The mutated calmodulin is referred to as calmodulin+cys4. The substitutions were generated by using as a PCR primer of the following oligonucleotide sequence 5′-CGCGGATCCGCCACCATGCATGACCAACTGACATGCTGCCAGATTTGCTGCTTCAAAGAAGCCTTCTCATTATTC-3′ (SEQ ID NO. 3) encoding for the expression of these substitutions. The nucleic acid sequence encoding the cysteine-substituted calmodulin was inserted into pcDNA3 vector (Invitrogen, Carlsbad, Calif.) using the BamHI and EcoRI restriction sites. After amplification in DH5 bacteria, the vector was transfected (at 37° C.) into HeLa cells using the Lipofectin system from GibcoBRL.
Three days after transfection, the cells were treated with 1 μM biarsenical molecule (III) and 10.0 μM EDT for one hour. […] These lightly stained cells may have expressed the calmodulin+cys4 polypeptide, but at lower levels than the bright cells. […] Removal of the 1.4 neutral density filter was required to see details of the staining of the untransfected cells which appeared to be mitochondrial.

[2] = Fluorescence of the free biarsenical molecule bonded to EDT; assay type: physicochemical; details: before reaction with target sequence
[3] = molecular target: T2, cyan GFP-target sequence (SEQ ID NO. 4) fusion in HeLa cells (Aequorea victoria, UniProt P42212, F64L/M153T/N146I/N212K/S65T/V163A/Y66W); assay: Measurement of FRET in HeLa cells expressing cyan GFP-target sequence fusion; assay type: cell-based
T2 construct: expressed in transfected cells; host or cells: HeLa cells, pcDNA3 vector
Source text: Expression of Cyan GFP-target sequence fusion in HeLa cells. Using standard molecular biology techniques, the target sequence (SEQ ID NO. 4) (with the tryptophan in SEQ ID NO. 1 replaced by an alanine) was attached to cyan fluorescent protein (CFP). CFP is the Green Fluorescent Protein (GFP) of Aequorea victoria with the following additional mutations: F64L, S65T, Y66W, N146I, M153T, V163A, N212K. Miyawaki A., et al. Nature 388:882-7 (1997). Fusion of the target sequence to the C-terminus of cyan GFP was accomplished using a PCR primer. The PCR primer had the following oligonucleotide sequence 5′-CGGCAATTCTTAGGCCCTGGCGCAGCACTCCCTGCAGCAGGCCTCCCTGGCGGCGGCCTCGGCCTTGTACAGCTCGTCCATGCCC-3′ (SEQ ID NO. 2) encoding for the expression of the target sequence. It was inserted into the pcDNA3 vector (Invitrogen, Carlsbad, Calif.) using HindIII and EcoRl restriction sites. After amplification in DH5 bacteria, it was transfected (at 37° C.) into HeLa cells using the Lipofectin system from GibcoBRL.
Measurement of FRET in HeLa cells. Three days after transfection, a concentration of 1.0 μM biarsenical molecule(III) and 10.0 μM ethanedithiol was applied to the transfected cells. Fluorescence changes were observed using a 440DF20 filter (Omega Optical, Brattleboro, Vt.) and a 4% transmittance neutral density filter for excitation and 480DF30 and 635DF50 filters for emission.
HeLa cells expressing the fusion protein were contacted with biarsenical molecule (III) on a fluorescence microscope stage. […] Upon addition of 1.0 μM biarsenical molecule (III) mixed with 10 μM EDT to inhibit background staining, the intensity of fluorescence at 480 nm decreased as energy was transferred from the CFP to the biarsenical molecule (III) which had reacted with the target sequence. There was a corresponding increase in fluorescence in the 635 nm channel due to biarsenical molecule (III)/target sequence emission. Upon removal of the biarsenical molecule (III) solution, there was little change.

[4] = system: target sequence (SEQ ID NO. 1); assay: Stability of biarsenical molecule (III)/target sequence complex to 2,3 dimercapto-1-propanol (BAL); assay type: physicochemical; details: room temperature, 15 minutes; for effect of BAL on complex: 100 nM complex
Procedure: as §1

[5] = 1.0 μM biarsenical molecule (III) with 10 μM EDT, excitation 440 nm, transfected HeLa cells

SMILES | emission maximum ([1]; complex with target sequence) [nm] | excitation maximum ([1]; complex with target sequence) [nm] | red shift ([1]; dichloro-derivative compared with biarsenical molecule (III)) [nm] | fluorescence of transfected cells (calmodulin+cys4; 1 μM biarsenical molecule (III) and 10.0 μM EDT for one hour, HeLa cells transfected with calmodulin+cys4, 480 nm excitation, 535 nm emission) | fluorescence of untransfected cells (calmodulin+cys4; same concentrations of biarsenical molecule (III) and EDT, untransfected HeLa cells) | fluorescence of free molecule [2] | fluorescence of free molecule ([2]; listed as biarsenical molecule of formula (III)) | fluorescence in the 635 nm channel (complex emission) [3, 5] | intensity of fluorescence at 480 nm (CFP emission) [3, 5] | removal of biarsenical molecule from target sequence in cells (reversibility) ([3]; cells treated with 1 mM EDT) | fluorescence of untransfected cells relative to cells expressing the CFP-target sequence fusion ([3]; excitation 480 nm, signal at 535 nm, after subtraction of CFP signal) | red shift of fluorescent signal relative to fluorescein ([1]; complex with target sequence) | quantum yield ([1]; complex with target sequence, 25 mM phosphate, pH 7.4, 100 mM KCl, excitation at 499 nm, relative to fluorescein) | effect of BAL on complex ([4]; 1 μM BAL) | effect of BAL on complex ([4]; 10 μM BAL) | effect of BAL on complex ([4]; 100 μM BAL) | BAL at which complex remains intact [4]
O=C1OC2(c3ccccc31)c1cc(Cl)c(O)c([As]3SCCS3)c1Oc1c2cc(Cl)c(O)c1[As]1SCCS1 [2′,7′-dichloro-4′,5′-bis(2-arsa-1,3-dithiolan-2-yl)fluorescein] | 538 | 518 | 10 | – | – | – | – | – | – | – | – | – | – | – | – | – | –
O=C1OC2(c3ccccc31)c1ccc(O)c([As]3SCCS3)c1Oc1c2ccc(O)c1[As]1SCCS1 [biarsenical molecule (III), 4′,5′-bis(2-arsa-1,3-dithiolan-2-yl)fluorescein] | 528 | 508 | – | bright fluorescence | only very light fluorescence | nonfluorescent | essentially completely nonfluorescent | increase | decreased | fast but not complete | about 10% | about 20 nm | 0.44 | barely affected | barely affected | significant reduction in fluorescence | up to 100 equivalents
